Patent US4977144A, “Imidazo[4,5-b]pyridine derivatives as cardiovascular agents” (Ciba-Geigy Corporation, priority 1989, dated 1990)
pIC50: −log10 of the molar value.

Experiments:
[1] = tested on: spontaneous hypertensive rat; test: blood pressure lowering effect in the spontaneous hypertensive rat on oral administration; type: in vivo; details: at a dose of about 10 mg/Kg p.o.
Procedure: Indicative of in vivo adenosine receptor agonist activity, the hypotensive activity of the compounds of the invention can be measured in normotensive or spontaneous hypertensive rats on intravenous or oral administration.
The blood pressure lowering effect in the spontaneous hypertensive rat is determined on oral administration as known in the art.

[2] = target: T1, adenosine-2 (A-2) receptor (Rattus norvegicus, UniProt P30543); test: adenosine-2 (A-2) receptor binding: inhibition of specific binding of 3H-NECA in rat striatal membrane preparations; design: species or system male Sprague-Dawley rats; details: for pIC50: displacement of 4 nM 3H-NECA in the presence of 50 nM cyclopentyladenosine, rat striatal membranes, read-out: IC50 in the in vitro adenosine-2 receptor binding assay
T1 construct: striatal membrane preparations from corpus striatum of male Sprague-Dawley rats; from tissue; host or cells: corpus striatum of male Sprague-Dawley rats (membrane preparation)
T1 sequence (P30543 whole entry): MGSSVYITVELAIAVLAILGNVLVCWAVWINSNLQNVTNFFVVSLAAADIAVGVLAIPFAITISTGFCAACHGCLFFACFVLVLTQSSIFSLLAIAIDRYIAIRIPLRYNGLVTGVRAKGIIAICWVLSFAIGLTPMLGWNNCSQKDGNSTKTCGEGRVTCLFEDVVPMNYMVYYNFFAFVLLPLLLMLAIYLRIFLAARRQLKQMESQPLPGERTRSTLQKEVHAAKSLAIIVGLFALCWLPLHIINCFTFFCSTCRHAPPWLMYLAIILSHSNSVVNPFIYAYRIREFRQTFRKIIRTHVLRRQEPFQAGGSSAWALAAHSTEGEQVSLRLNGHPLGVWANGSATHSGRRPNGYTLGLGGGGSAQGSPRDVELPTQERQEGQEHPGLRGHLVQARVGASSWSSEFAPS

Row | SMILES | lowers blood pressure in the spontaneous hypertensive rat model [1] | greater potency at the A-2 receptor than at the A-1 receptor ([2]; A-2 binding versus A-1 binding) | pIC50 [2]
1 | Nc1cc(NCCC2CCCCC2)nc2c1ncn2[C@@H]1O[C@H](CO)[C@@H](O)[C@H]1O [Example 1, 7-amino-3-β-D-ribofuranosyl-N-(2-cyclohexylethyl)-3H-imidazo[4,5-b] pyridin-5-amine] | effectively lowers blood pressure | more than 100 fold | ~7.00
2 | COc1ccc(CCNc2cc(N)c3ncn([C@@H]4O[C@H](CO)[C@@H](O)[C@H]4O)c3n2)cc1 [Example 15(1)] | – | – | ~7.15
